13 molecules from patent publication US11220503B2, “Phthalazine derivatives, preparation method, pharmaceutical composition and usage thereof” (Shanghai SIMR Biotech Co., Ltd., priority 2015, dated 2022) can be followed below.

Where two headings read alike, the source gives them in different places.

The assay concerns the target T1, α5β3γ2 receptor (Homo sapiens, UniProt P18507+P31644).
T1 construct: expressed in transfected cells; host or cells: HEK-293 (stably transfected)
The assay is described as follows: Cell level screening: whole cell patch clamp, inverse agonist efficacy. The format is cell-based. The conditions noted are these: for inverse agonism efficacy of the compound/α5IA inverse agonism efficacy: ratio to α5IA, compound 100 nM; for inhibition at 0.001 µM: Con. 1 nM; for inhibition at 0.01 µM: Con. 10 nM; for inhibition at 0.05 µM: Con. 50 nM; for inhibition at 1 µM: Con. 1000 nM. The protocol: The inventors used electrophysiological methods to assay the inverse agonist efficacy of the substance to be tested. The detailed procedures are as follows: (1) Different subunits of GABAA receptors were expressed in human embryonic kidney cells 293 (HEK293). The cells were cultured in a culture medium and used as a cell model for screening potential analgesics. The α, β and γ subunits are necessary to form complete functional GABAA receptors. In this example, the inventor has established the following cell model: (a) α5 subunit (protein sequence is GenBank accession number: NP_001158509), β3 subunit (protein sequence is GenBank accession number: NP_068712) and γ2 subunit (protein sequence is GenBank accession number: NP_944494) were expressed in HEK-293 cell lines at the same time, which formed the complete functional GABAA receptors. (2) Cells were stably transfected HEK-293 cells expressing α5β3γ2 receptor, which were labeled by green fluorescent protein (GFP). Cells were grown in 10 cm dishes. The cells were passaged after reaching 80-90% confluence. During passaging, the culture medium was removed and discarded, 3 mL DMEM medium (Gibco™) was added to the dishes, the dishes were shaken slightly, and DMEM was removed and discarded. 3 mL Trypsin (Trypsin-EDTA 0.05%, Gibco™) was added and cells were digested at 37° C. for 3 minutes. Then 3 mL complete growth medium (DMEM+10% horse serum (Gibco™)) was added and the cells at the bottom of the culture dishes were dispersed. The cell suspension were transferred to a 15 mL centrifugal tube (Corning®) and then centrifuged at 200 g for 3 minutes. The supernatant was discarded, 4 mL complete growth medium was added, and the cells were resuspended by gently blowing. The cell suspension was diluted by 1:5 or 1:10 for subculturing. The cell suspension was diluted by 1:12 for electrophysiology experiment, which are added to the 24 well plate (Corning®) which has a glass slide pre-treated with poly-D-lysine. The cells were adhered to the slide before the experiment was conducted. The cells were maintained in culture for no more than 24 hours before use. (3) Compound concentration: for screening, all compounds were diluted to a final concentration of 100 nM. GABA was diluted at the concentration of 0.05-0.1 μM. The compounds were at the concentration of 1 nM, 10 nM, 50 nM, 100 nM and 1000 nM in dose-inverse agonism efficacy (%) experiment. The whole cell patch clamp technique was used in electrophysiology experiments. The extracellular solution (ECS) contained: 150 mM NaCl, 5 mM KCl, 2.5 mM CaCl2, 1 mM MgCl2, 10 mM HEPES and 10 mM glucose (pH 7.4); Patch electrodes were filled with an intracellular solution containing: 140 mM KCl, 5 mM EGTA, 10 mM HEPES (adjusted to pH 7.4 with KOH and to 320-330 mOsm with water). The currents were recorded by an EPC-10 amplifier and the PatchMaster software (HEKA). Patch electrodes with a resistance of 5-6 MΩ were pulled from borosilicate glass (Sutter). The diluted compounds were perfused by OCTAFLOWII system. GFP positive and independently growing cells were selected for recording. During recording, the membrane voltage was clamped at −60 mV. During experiment, the cells were firstly perfused with ECS for 20 seconds. When the baseline reached to a stable state, cells were then perfused with GABA solution. Then the current induced by GABA can be detected. After about 20-40 seconds, the current was stable. ECS was switched to compounds solution and the effects of the compounds were detected. At last, the perfusion solution was switched to ECS. The experiment was finished when the post-baseline returned to the pre-baseline before compounds perfusion. Only the data whose pre-baseline and post-baseline are at almost the same level were used for analysis. GABA was diluted at the concentration of 0.05-0.1 μM in ECS. Then, compounds were diluted at the desired concentration in GABA ECS. (4) Currents were analyzed with the PatchMaster (HEKA) software. […]
(In general: In patch-clamp work, channel activity is measured electrically.)

Setting [1] is: HEK293, compound 100 nM, GABA 0.05-0.1 μM, HEK293 α5β3γ2, clamped at −60 mV, (Ipost-Ipre)*100/Ipre, read-out: inverse agonism efficacy(%).
The mark [2] stands for this setting: dose-efficacy, single replicates, read-out: Inverse agonism-Efficacy.
[3] abbreviates: dose-efficacy, Con. 100 nM, single replicates, read-out: Inverse agonism-Efficacy.

T1 sequence (P31644 32-462): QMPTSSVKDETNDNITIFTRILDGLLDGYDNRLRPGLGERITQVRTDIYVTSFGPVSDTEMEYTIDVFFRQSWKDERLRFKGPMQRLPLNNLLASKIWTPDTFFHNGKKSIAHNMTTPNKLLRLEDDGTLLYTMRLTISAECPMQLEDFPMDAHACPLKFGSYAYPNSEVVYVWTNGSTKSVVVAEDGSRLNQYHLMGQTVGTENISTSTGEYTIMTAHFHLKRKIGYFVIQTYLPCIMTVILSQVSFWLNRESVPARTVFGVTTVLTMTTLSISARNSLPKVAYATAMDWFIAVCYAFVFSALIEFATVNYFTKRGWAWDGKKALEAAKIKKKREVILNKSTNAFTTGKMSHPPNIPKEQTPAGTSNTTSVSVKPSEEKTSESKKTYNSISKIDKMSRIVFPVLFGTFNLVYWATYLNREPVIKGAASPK
T1 sequence (P28472 26-473 isoform P28472-2 partner limits assumed): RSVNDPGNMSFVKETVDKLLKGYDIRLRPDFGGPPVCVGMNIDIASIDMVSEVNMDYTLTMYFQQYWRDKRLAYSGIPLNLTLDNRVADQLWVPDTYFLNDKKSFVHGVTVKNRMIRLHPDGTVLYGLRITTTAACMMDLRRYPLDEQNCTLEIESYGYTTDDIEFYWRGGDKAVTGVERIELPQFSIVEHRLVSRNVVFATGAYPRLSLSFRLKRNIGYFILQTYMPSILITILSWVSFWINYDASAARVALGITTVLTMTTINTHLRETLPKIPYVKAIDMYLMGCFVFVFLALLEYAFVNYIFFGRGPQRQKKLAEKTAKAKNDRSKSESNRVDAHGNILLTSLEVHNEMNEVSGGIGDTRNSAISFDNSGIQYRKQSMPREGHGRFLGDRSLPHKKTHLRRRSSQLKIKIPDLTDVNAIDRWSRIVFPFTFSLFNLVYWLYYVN
T1 sequence (P18507 40-475): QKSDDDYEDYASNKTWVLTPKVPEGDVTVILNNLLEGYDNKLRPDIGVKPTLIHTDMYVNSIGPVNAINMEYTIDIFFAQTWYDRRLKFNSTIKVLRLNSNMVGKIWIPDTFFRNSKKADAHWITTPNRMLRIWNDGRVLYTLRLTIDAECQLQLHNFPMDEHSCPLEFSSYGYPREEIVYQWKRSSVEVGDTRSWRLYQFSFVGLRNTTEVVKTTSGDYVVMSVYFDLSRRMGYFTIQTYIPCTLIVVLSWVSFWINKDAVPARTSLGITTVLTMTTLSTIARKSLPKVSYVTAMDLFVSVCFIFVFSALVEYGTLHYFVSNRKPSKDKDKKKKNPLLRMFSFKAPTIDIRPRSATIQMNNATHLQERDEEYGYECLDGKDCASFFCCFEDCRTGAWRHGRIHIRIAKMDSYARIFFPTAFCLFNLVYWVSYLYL

For `Cc1cc(-c2nnc3c4ccccc4c(OCc4ccc(C(=O)N[C@H](C)CO)cc4Br)nn23)no1` [Compound 32, (R)-3-bromo-N-(1-hydroxypropan-2-yl)-4-(((3-(5-methylisoxazol-3-yl)-[1,2,4]triazolo[3,4-a]phthalazin-6-yl)oxy)methyl)benzamide], the “inverse agonism efficacy of the compound/α5IA inverse agonism efficacy” value (“inverse agonism efficacy” below) was 1.739. Further, the inhibition at 0.1 µM under setting [1] was 39.2%.

For the molecule `O=C(NN1CCS(=O)(=O)CC1)c1ccc(COc2nn3c(-c4cc(CO)on4)nnc3c3ccccc23)nc1` [Compound 54, N-(1,1-dioxidothiomorpholino)-6-(((3-(5-(hydroxymethyl)isoxazol-3-yl)-[1,2,4]triazolo[3,4-a]phthalazin-6-yl)oxy)methyl)nicotinamide], the “inverse agonism efficacy” value is 1.508. Under setting [1], the inhibition at 0.1 µM worked out at 34%.

On to `NNC(=O)c1ccc(COc2nn3c(-c4cc(CO)on4)nnc3c3ccccc23)nc1` [Compound 51, 6-(((3-(5-(hydroxymethyl)isoxazol-3-yl)-[1,2,4]triazolo[3,4-a]phthalazin-6-yl)oxy)methyl)nicotinohydrazide], for which the “inverse agonism efficacy” value worked out at 1.351. Also, the inhibition at 0.1 µM under setting [1] stood at 30.5%.

For the molecule `Cc1cc(-c2nnc3c4ccccc4c(OCc4ccc(C(=O)N(C)C)cn4)nn23)no1` [Compound 06, N,N-dimethyl-6-(((3-(5-methylisoxazol-3-yl)-[1,2,4]triazolo[3,4-a]phthalazin-6-yl)oxy)methyl)nicotinamide], the “inverse agonism efficacy” value worked out at 1.596. The inhibition at 0.1 µM under setting [1] stood at 36%. For the same molecule, under setting [2], the inhibition at 0.001 µM stood at 10%, the inhibition at 0.01 µM came to 17%, the inhibition at 0.05 µM amounted to 23.1% and the inhibition at 1 µM stood at 32.3%. The inhibition at 0.1 µM under setting [3] was 26%.

For `O=C(NN1CCOCC1)c1ccc(COc2nn3c(-c4cc(CO)on4)nnc3c3ccccc23)nc1` [Compound 33, 6-(((3-(5-(hydroxymethyl)isoxazol-3-yl)-[1,2,4]triazolo[3,4-a]phthalazin-6-yl)oxy)methyl)-N-morpholinonicotinamide], the “inverse agonism efficacy” value is reported as 1.463. Moreover, the inhibition at 0.1 µM under setting [1] turned out to be 33%.

`Cn1cc(NC(=O)c2ccc(COc3nn4c(-c5cc(CO)on5)nnc4c4ccccc34)nc2)cn1` [Compound 37, 6-(((3-(5-(hydroxymethyl)isoxazol-3-yl)-[1,2,4]triazolo[3,4-a]phthalazin-6-yl)oxy)methyl)-N-(1-methyl-1H-pyrazol-4-yl)nicotinamide]: the “inverse agonism efficacy” value stood at 1.419. For the same molecule, the inhibition at 0.1 µM under setting [1] is 32%.

Consider `Cc1nc(-c2nnc3c4ccccc4c(OCc4ccc(C(=O)N[C@H](C)CO)cc4C#N)nn23)no1` [Compound 31, (R)-3-cyano-N-(1-hydroxypropan-2-yl)-4-(((3-(5-methyl-1,2,4-oxadiazol-3-yl)-[1,2,4]triazolo[3,4-a]phthalazin-6-yl)oxy)methyl)benzamide], for which the “inverse agonism efficacy” value is on record as 2.1179. The inhibition at 0.1 µM under setting [1] was 47.8%.

Consider `Cc1cc(-c2nnc3c4ccccc4c(OCc4cn(C)nn4)nn23)no1` [α5IA, reference compound], for which the inhibition at 0.1 µM under setting [1] turned out to be 22.6%. Also, under setting [2], the inhibition at 0.001 µM amounted to 4.2%, the inhibition at 0.01 µM is 9.4%, the inhibition at 0.05 µM was found to be 22.1% and the inhibition at 1 µM is 20.7%. The inhibition at 0.1 µM under setting [3] turned out to be 19%.

For the molecule `C[C@H](CO)NC(=O)c1ccc(COc2nn3c(-c4ccsc4)nnc3c3ccccc23)nc1` [Compound 60, (R)—N-(1-hydroxypropan-2-yl)-6-(((3-(thiophen-3-yl)-[1,2,4]triazolo[3,4-a]phthalazin-6-yl)oxy)methyl)nicotinamide], the “inverse agonism efficacy” value is reported as 1.447. Further, under setting [1], the inhibition at 0.1 µM amounted to 32.6%.

On to `C[C@H](CO)NC(=O)c1ccc(COc2nn3c(-c4ccoc4)nnc3c3ccccc23)nc1` [Compound 59, (R)-6-(((3-(furan-3-yl)-[1,2,4]triazolo[3,4-a]phthalazin-6-yl)oxy)methyl)-N-(1-hydroxypropan-2-yl)nicotinamide], for which the “inverse agonism efficacy” value is reported as 1.73. Also, under setting [1], the inhibition at 0.1 µM stood at 39%.

As to `O=C(c1ccc(COc2nn3c(-c4cc(CO)on4)nnc3c3ccccc23)nc1)N1CCOCC1` [Compound 41, (6-(((3-(5-(hydroxymethyl)isoxazol-3-yl)-[1,2,4]triazolo[3,4-a]phthalazin-6-yl)oxy)methyl)pyridin-3-yl)(morpholino)methanone], the “inverse agonism efficacy” value came out at 1.867. In addition, the inhibition at 0.1 µM under setting [1] stood at 42.1%.

On to `CN(C)C(=O)c1ccc(COc2nn3c(-c4cc(CO)on4)nnc3c3ccccc23)nc1` [Compound 45, 6-(((3-(5-(hydroxymethyl)isoxazol-3-yl)-[1,2,4]triazolo[3,4-a]phthalazin-6-yl)oxy)methyl)-N,N-dimethylnicotinamide], for which the “inverse agonism efficacy” value is 1.339. Further, the inhibition at 0.1 µM under setting [1] was 30.2%.

Turning to `Cc1nc(COc2nn3c(-c4cc(CO)on4)nnc3c3ccccc23)ccc1C(=O)N[C@H](C)CO` [Compound 61, (R)-6-(((3-(5-(hydroxymethyl)isoxazol-3-yl)-[1,2,4]triazolo[3,4-a]phthalazin-6-yl)oxy)methyl)-N-(1-hydroxypropan-2-yl)-2-methylnicotinamide], the “inverse agonism efficacy” value worked out at 2.047. Under setting [1], the inhibition at 0.1 µM came to 46.2%.
